Experiments:
[1] = DCIP redox potential of highly hopped beer during aging at 40° C.; assay type: physicochemical; set-up: DCIP Redox Value: scale not given here; settings: for effect on DCIP redox potential: highly hopped beer aged at 40° C.
Description: Dr. […] H2SO4 brought to 100 mL in a volumetric flask. Four drops of starch indicator were added, and the DCIP was titrated with 0.01; sodium thiosulfate. The concentration of DCIP in mg/dL was measured by multiplying the mL of titer by 14.5. De-ionized water was added to adjust the final concentration to 1.45 mg/mL. 250 μL of adjusted DCIP was added to the 10 mL of degassed beer, the flask swirled to mix, and a 1 min timer started. The beer/DCIP was poured into a 1 cm cuvette and placed in the spectrophotometer. The absorbance was read at exactly 1 minute. These analyses were done in triplicate and averaged. […] The bottle dosing methods used were the same as those described in Example 1. The following samples were made: • 1. 20 ppm Carnosic Acid • 2. 20 ppm Carnosic Acid plus Air • 3. 20 ppm Rosmarinic Acid • 4. 20 ppm Rosmarinic Acid plus Air • 5. 10 ppm Carnosic Acid+10 ppm Rosmarinic Acid • 6. 10 ppm Carnosic Acid+10 ppm Rosmarinic Acid+Air • 7. […] No Additions. Treatments 1 through 8 were put in a temperature regulated room set at 40° C. and maintained at ±1° C. At intervals of Zero time, 3 days, 7 days, 14 days, and 21 days, samples were withdrawn and Redox Potentials were measured by the method outlined in example 4. Color measurements were made using the L, a, b system on a Minolta Spectrophotometer model […], chroma and hue angle color measure units were recorded. DPPH radical scavenging numbers were measured using the following method. A de-ionized-H2O/EtOH buffer solution was prepared by dissolving 250 mg sodium citrate dihydrate and 10 g of absolute ethanol in 250 mL of deionized water. The solution was then titrated with 0.1 N Citric acid (6.404 g/L anhydrous citric acid) a drop at a time to reach a pH of between 4.35 and 4.5.

[2] = DCIP redox potential of light beer during pasteurization; assay type: physicochemical; settings: for preservation of redox potential during pasteurization: 20 ppm; for Redox Potential: +20 ppm
Description: Five bottles of a commercial light beer, 81 days old at the time of the experiment, but having been stored at 2° C. were used in this experiment. The following five treatments were prepared: • 1. An unpasteurized control was prepared by leaving one bottle unopened in the refrigerator until analysis. • 2. Another bottle was opened, 20 ppm carnosic acid was added from a solution made from pure material, and the bottle fobbed and crowned. This sample was also not pasteurized. • 3. A bottle was opened, fobbed to exclude air, and crowned. This sample is designated the No Addition Pasteurized Control. • 4. A bottle was opened and 20 ppm carnosic acid was added from a solution made from pure compound. The bottle was fobbed and crowned and subjected to pasteurization. • 5. A bottle was opened and 20 ppm of rosmarinic acid was added from a solution of pure compound. The bottle was fobbed and crowned and subjected to pasteurization. Treatments 3, 4, and 5 were immersed in an ambient temperature water bath and heated to 60° C. The approximate time to reach 60° C. from ambient was 12 minutes. The bottles remained at 60° C. for 12 minutes. They were then removed and cooled. All five treatments were analyzed by the DCIP-Redox method described in Example 4.

[3] = Sensory panel staling scaling of bottled standard American lager; settings: 10 ppm (RA/CA: 5 ppm CA + 5 ppm RA)
Description: A standard American lager and a light lager were purchased commercially. The treatment bottles were opened, dosed, fobbed, crowned and inverted. The control bottles were opened, crowned and inverted. Dosing was performed as follows. One gram of pure antioxidant (corrected for actual purity) was dissolved in 100 mL ethanol and sonicated to make the antioxidant solutions of 1 weight/volume %. The volumes shown in Table 16 show the amount of the antioxidant solutions added to obtain a total of 10 ppm carnosic acid and/or rosmarinic acid in the final beverage formulations.
The sensory data were taken in the following manner. Each treatment sample was presented to the panelists one time each in two different sessions each at a different amount of aging time (5 vs. 10 days). Panelists rated the beers on a scale of 0-10, with 0 being fresh and 10 being most stale. Since the output of the panel as a whole was desired, and not any one individual panelist, the means of each treatment sample in each replicate groups were calculated and tabulated as in Table 17. Samples spiked with known amounts of off-flavors characteristic of the aged standard American lager were used as reference beers. This characterization was done in a separate descriptive session. The characteristic off-flavors in the pilot brewery beer were papery and leathery, and these were each spiked into fresh control beer at 0.75 and 1.5 times the typical flavor threshold.
Statistical analysis consisted of doing paired t-Tests on the treatment sample vs. the aged control sample (Table 18). One-tailed tests were used that probed the question whether the staling values of one treatment were lower than that of the other (e.g treatment vs. control). Confidence levels were reported along with p values.

[4] = Trained panel flavor evaluation, highly hopped aromatic beer, forced aging; settings: 20 ppm
Description: Separate solutions containing 2% pure rosmarinic acid or pure carnosic acid were prepared by weighing out 500 mg of each compound into separate volumetric flasks and diluting to 25 mL with 100% EtOH. The beer used in this study was the freshest material available, being coded Nov 03 […]. It was purchased at a local market. Bottle additions were done as in Example 1. The following samples were prepared: The bottles were placed in a heated room at 40±1° C. in the dark for varying amounts of time. After the allotted aging time, the bottles of beer were transferred to a dark refrigerator and stored at approximately 2to 4° C. until they were analyzed (always within 48 hours). Additional bottles from the same code were kept unopened in 2° to 4° C. storage. These unopened samples from the same beer code were labeled “Fresh Control” used to provide fresh samples for the trained panel. At the appropriate times, a trained 8-member panel evaluated the beers. […] Three beers were evaluated at each session-Fresh Control, Aged No Addition, and Aged Beer with one of the Labiatae treatments. The overall preference rank, the character and intensity of the aroma, the levels of paper/cardboard aroma and flavor, sour or off flavors, hang and astringency and bitterness quality and intensity were evaluated.

[5] = DCIP redox potential vs CA concentration, light beer; assay type: physicochemical; settings: 4 hr, 2-4° C.
Description: The light beer was purchased at a local market and was 2 months old at time of use. Carnosic acid was added via a 1% ethanol solution made with pure CA. The levels of addition were 0, 5, 10, 15 and 20 ppm. The beers were opened, additions made and the beers were fobbed and crowned as described in Example 4. All analyses were done in triplicate using the DCIP method as described in Example 4. The samples were refrigerated for approx. 4 hr before being degassed and analyzed.

[6] = 0 days at 40° C., + Air, 20 ppm (RA + CA: 10 ppm each)
[7] = 0 days at 40° C., no air, 20 ppm (CA + RA: 10 ppm each)
[8] = 3 days at 40° C., + Air, 20 ppm (RA + CA: 10 ppm each)
[9] = 3 days at 40° C., no air, 20 ppm (CA + RA: 10 ppm each)
[10] = 7 days at 40° C., + Air, 20 ppm (RA + CA: 10 ppm each)
[11] = 7 days at 40° C., no air, 20 ppm (CA + RA: 10 ppm each)
[12] = 14 days at 40° C., + Air, 20 ppm (RA + CA: 10 ppm each)
[13] = 14 days at 40° C., no air, 20 ppm (CA + RA: 10 ppm each)
[14] = 21 days at 40° C., + Air, 20 ppm (RA + CA: 10 ppm each)
[15] = 21 days at 40° C., no air, 20 ppm (CA + RA: 10 ppm each)
[16] = pasteurized (60° C. for 12 minutes)

Row | Structure (SMILES) | DCIP Redox Value [1, 6] | DCIP Redox Value [1, 7] | DCIP Redox Value [1, 8] | DCIP Redox Value [1, 9] | DCIP Redox Value [1, 10] | DCIP Redox Value [1, 11] | DCIP Redox Value [1, 12] | DCIP Redox Value [1, 13] | DCIP Redox Value [1, 14] | DCIP Redox Value [1, 15] | effect on DCIP redox potential ([1]; no air) | effect on DCIP redox potential ([1]; with added air) | preservation of redox potential during pasteurization [2] | Redox Potential [2, 16] | Panelist staling average, Day 5 Average (0 fresh, 10 most stale) ([3]; Aged) | Panelist staling average, Day 10 Average (0 fresh, 10 most stale) ([3]; Aged) | Panelist staling average, Day 5 Average (0 fresh, 10 most stale) ([3]; Fresh) | Panelist staling average, Day 10 Average (0 fresh, 10 most stale) ([3]; Fresh) | panelists' preference for treated sample over Aged No Addition sample ([4]; 1 week 40° C.) | further results
1 | O=C(/C=C/c1ccc(O)c(O)c1)O[C@H](Cc1ccc(O)c(O)c1)C(=O)O [RA, rosmarinic acid] | 76.0 | 76.3 | 63.4 | 76.2 | 48.3 | 63.9 | 25.1 | 59.9 | 26.6 | 63.4 | no effect on the DCIP redox potential | not effective in preserving the DCIP redox potential | no potential to preserve the redox potential of beer during pasteurization | 13.4 | 3.22 | 2.75 | 0.78 | 2.5 | 7 of 8 panelists preferred | panelists' preference for treated sample over Aged No Addition sample ([4]; 3 days 40° C.): 6 of 8 panelists preferred
2 | CC(C)c1cc2c(c(O)c1O)[C@@]1(C(=O)O)CCCC(C)(C)[C@@H]1CC2 [CA, carnosic acid] | 93.8 | 90.6 | 89.1 | 89.1 | 68.9 | 83.5 | 62.1 | 82.3 | 62.9 | 86.9 | increases the DCIP redox potential of the starting beer | beneficial effect on aged beer that contains added air | held at a higher level than the untreated, unpasteurized control | 45.0 | 3.00 | 4.375 | 2.89 | 2.25 | 8 of 8 panelists preferred | Redox Potential ([2]; no pasteurization): 67.4; Redox Potential ([5]; 5 ppm CA): 28.1; Redox Potential ([5]; 10 ppm CA): 40.5; Redox Potential ([5]; 15 ppm CA): 51.6; Redox Potential ([5]; 20 ppm CA): 67.4
